Experimental data taken from ChEMBL document CHEMBL1201862, “PubChem BioAssay data set” (2004).
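These data come from cells grown in 96-well plates and exposed to compound for 48 hours at five concentrations. Here, GI50 denotes the concentration required for 50% inhibition of growth.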 The source made the active and inactive calls. No stated cut-off is given here; in the data, active = GI50 up to about 1.1 µM and inactive = higher.

Columns and labels:
Experiment in all cases: inhibition of tumour cell growth, NCI panel, 48 h
XF498 = system: XF498
DLD-1 = system: DLD-1
HOP-18 = system: HOP-18
DMS-273 = system: DMS-273
M19-MEL = system: M19-MEL
SNB-78 = system: SNB-78
DMS-114 = system: DMS-114
LXFL 529 = system: LXFL 529
RXF 631 = system: RXF 631

Compound	GI50 (XF498)	GI50 (DLD-1)	GI50 (HOP-18)	GI50 (DMS-273)	GI50 (M19-MEL)	GI50 (SNB-78)	GI50 (DMS-114)	GI50 (LXFL 529)	GI50 (RXF 631)
N#CN=C(NCc1ccccc1)NCc1ccccc1	> 77.1 µM (inactive)	> 47.4 µM (inactive)	> 100 µM (inactive)	> 41.9 µM (inactive)	> 54.7 µM (inactive)	> 100 µM (inactive)	> 38.3 µM (inactive)	> 92 µM (inactive)	–
C=C(CC(NC(=O)c1ccc(C(CC)Cc2cnc3nc(N)nc(N)c3n2)cc1)C(=O)O)C(=O)O (stereo not given)	–	0.000574 µM (active)	0.0429 µM (active)	0.000644 µM (active)	–	27.7 µM (inactive)	–	0.00239 µM (active)	–
Cc1ccccc1SC(/C=C/NNC1=NN=C(c2ccccc2)C(c2ccccc2)N1)c1ccccc1 (stereo not given)	34.7 µM (inactive)	37.5 µM (inactive)	–	35.7 µM (inactive)	26 µM (inactive)	22 µM (inactive)	22.9 µM (inactive)	–	–
COc1ccc(/C(Cl)=C(\C=O)c2ccc([N+](=O)[O-])cc2)cc1OC	7.4 µM (inactive)	–	10.5 µM (inactive)	11.8 µM (inactive)	11 µM (inactive)	4.3 µM (inactive)	5.78 µM (inactive)	3.23 µM (inactive)	12.4 µM (inactive)
O=C(O)OC12CCCCCC1C(=O)C1CCCCC12 (stereo not given)	82.6 µM (inactive)	–	> 100 µM (inactive)	62.5 µM (inactive)	> 100 µM (inactive)	> 100 µM (inactive)	82 µM (inactive)	> 100 µM (inactive)	–
CCCCn1c2ccccc2c2ccc3c(c21)C(=O)C=CC3=O	–	> 100 µM (inactive)	> 100 µM (inactive)	> 100 µM (inactive)	0.185 µM (active)	> 100 µM (inactive)	> 100 µM (inactive)	> 100 µM (inactive)	–
[O-][S+]1c2ccccc2N=C(c2cccs2)CC1c1ccccc1O (stereo not given)	32.1 µM (inactive)	60.8 µM (inactive)	–	–	> 100 µM (inactive)	–	37.2 µM (inactive)	> 100 µM (inactive)	> 100 µM (inactive)
CCOC(=O)C12C(C(=O)OC)=C(C)N(NC(=O)Nc3ccccc3)C1(N)N(NC(=O)Nc1ccccc1)C(C)=C2C(=O)OC (stereo not given)	24.3 µM (inactive)	41.5 µM (inactive)	32.9 µM (inactive)	27.7 µM (inactive)	18 µM (inactive)	47.4 µM (inactive)	31.9 µM (inactive)	26.1 µM (inactive)	–
O=C1c2ccccc2C(=O)N1/N=C\c1ccc(Br)cc1	> 10 µM (inactive)	> 10 µM (inactive)	> 10 µM (inactive)	> 10 µM (inactive)	> 10 µM (inactive)	> 10 µM (inactive)	> 10 µM (inactive)	> 10 µM (inactive)	> 10 µM (inactive)
Cc1ccc(-c2cc(=O)c3cc(C)c(C)c(C(=O)O)c3o2)cc1[N+](=O)[O-]	–	> 100 µM (inactive)	> 100 µM (inactive)	> 100 µM (inactive)	> 100 µM (inactive)	> 100 µM (inactive)	> 100 µM (inactive)	> 100 µM (inactive)	–
CC(=O)c1sc(-c2nc(C)c(C(=O)/C=C\c3ccc(/C=C\C(=O)c4sc(-c5nc(C)c(C(C)=O)s5)nc4C)cc3)s2)nc1C	> 100 µM (inactive)	> 100 µM (inactive)	> 100 µM (inactive)	> 100 µM (inactive)	> 100 µM (inactive)	> 100 µM (inactive)	> 100 µM (inactive)	> 100 µM (inactive)	–
CCC/N=C/c1c(O)c(O)c(C(C)C)c2cc(C)c(-c3c(C)cc4c(C(C)C)c(O)c(O)c(/C=N/CCC)c4c3O)c(O)c12	–	–	–	–	4.05 µM (inactive)	2.58 µM (inactive)	1.71 µM (inactive)	3.73 µM (inactive)	–
O=C(CCN1CCCC1)CC(c1ccccc1)c1c(O)c2ccccc2oc1=O (stereo not given)	> 100 µM (inactive)	> 100 µM (inactive)	–	> 100 µM (inactive)	> 100 µM (inactive)	> 100 µM (inactive)	> 100 µM (inactive)	> 100 µM (inactive)	–
CC(C)N(C(=O)C12C3C4C5(C#N)C3C1(I)C5C42I)C(C)C (stereo not given)	> 100 µM (inactive)	> 92.7 µM (inactive)	97.5 µM (inactive)	> 57.7 µM (inactive)	> 58.2 µM (inactive)	67.9 µM (inactive)	> 42.5 µM (inactive)	> 71.6 µM (inactive)	–
Cc1ccccc1/C=N/C12CC3CC(CC(C3)C1)C2	–	> 100 µM (inactive)	> 100 µM (inactive)	> 100 µM (inactive)	> 100 µM (inactive)	> 100 µM (inactive)	> 100 µM (inactive)	> 100 µM (inactive)	> 100 µM (inactive)
CSC(=S)c1ccc(C(=S)SC)cc1	> 100 µM (inactive)	> 100 µM (inactive)	> 100 µM (inactive)	> 100 µM (inactive)	> 100 µM (inactive)	> 100 µM (inactive)	> 100 µM (inactive)	> 100 µM (inactive)	> 100 µM (inactive)
Cn1c(N)nc(=O)c2c1N(C1OC(CO)C(O)C1O)CN2Cc1ccccc1 (stereo not given)	> 100 µM (inactive)	> 100 µM (inactive)	> 100 µM (inactive)	> 100 µM (inactive)	> 100 µM (inactive)	> 100 µM (inactive)	> 100 µM (inactive)	> 100 µM (inactive)	> 100 µM (inactive)
COc1cccc2c1N[S@](=O)S2	50.8 µM (inactive)	72.9 µM (inactive)	–	> 100 µM (inactive)	35.6 µM (inactive)	> 100 µM (inactive)	–	35.3 µM (inactive)	> 100 µM (inactive)
CCC(CO)Nc1nc2c(c(=O)n(C)c(=O)n2C)n1CCO (stereo not given)	–	–	–	> 100 µM (inactive)	> 100 µM (inactive)	4.91 µM (inactive)	–	> 100 µM (inactive)	–
CN(C)CC(C)(C)C(=O)/C=C/c1ccc(/C=C/C(=O)C(C)(C)CN(C)C)cc1	1.22 µM (inactive)	0.28 µM (active)	–	0.706 µM (active)	1.66 µM (inactive)	–	1.3 µM (inactive)	1.17 µM (inactive)	2 µM (inactive)
COC(=O)[C@@]12C(=O)CCC(=O)C1C1C(=CC2C)O[C@@H]2OC3(CCCCC3)O[C@H]12 (stereo not given in full)	> 38.4 µM (inactive)	58.3 µM (inactive)	> 64.3 µM (inactive)	> 100 µM (inactive)	61.9 µM (inactive)	> 100 µM (inactive)	48 µM (inactive)	44.5 µM (inactive)	–
O=C1C[C@@H]2[C@@H](CCC23CC3)N1	–	> 100 µM (inactive)	> 100 µM (inactive)	> 100 µM (inactive)	> 100 µM (inactive)	> 100 µM (inactive)	> 100 µM (inactive)	> 100 µM (inactive)	–
C=CCn1c(=O)c(C(=O)NC(=O)OCC)cn(C2CCCCC2)c1=O	> 100 µM (inactive)	> 100 µM (inactive)	> 100 µM (inactive)	> 100 µM (inactive)	–	> 100 µM (inactive)	> 100 µM (inactive)	> 100 µM (inactive)	> 100 µM (inactive)
O=C(NCCCCCCNC(=O)n1cc(F)c(=O)[nH]c1=O)NCCCOCCOCCOCCOCCOCCOCCOCCOCCOCCOCCOCCOCCOCCOCCOCCOCCOCCOCCOCCOCCOCCCNC(=O)C(O)C(O)C(O)C(O)CO (stereo not given)	15.6 µM (inactive)	9.33 µM (inactive)	> 100 µM (inactive)	33.3 µM (inactive)	61.7 µM (inactive)	> 100 µM (inactive)	> 100 µM (inactive)	–	–
CCCCCCCCCCC(=O)CC(=O)c1c(O)cccc1O	19.5 µM (inactive)	44.6 µM (inactive)	18.9 µM (inactive)	23.8 µM (inactive)	25.8 µM (inactive)	33.5 µM (inactive)	26.1 µM (inactive)	36.3 µM (inactive)	47.3 µM (inactive)
Cc1ccc(C[P+]2(c3ccccc3)CCCCC2)cc1.[O-][Cl+3]([O-])([O-])[O-]	< 0.01 µM (active)	84.3 µM (inactive)	–	35 µM (inactive)	15.7 µM (inactive)	25.9 µM (inactive)	14.2 µM (inactive)	14 µM (inactive)	–
Cc1nc2ccc(N)cc2nc1O	–	> 100 µM (inactive)	–	> 100 µM (inactive)	> 100 µM (inactive)	> 100 µM (inactive)	–	> 100 µM (inactive)	> 100 µM (inactive)
NC(=O)C1C(=O)Oc2cccnc21 (stereo not given)	> 100 µM (inactive)	> 100 µM (inactive)	> 100 µM (inactive)	> 100 µM (inactive)	> 100 µM (inactive)	–	> 100 µM (inactive)	–	–
O=C1OC(c2ccccc2)=N/C1=C\c1cccc2ccccc12	> 100 µM (inactive)	> 100 µM (inactive)	> 100 µM (inactive)	> 100 µM (inactive)	> 100 µM (inactive)	> 100 µM (inactive)	> 100 µM (inactive)	> 100 µM (inactive)	–
Cc1ccc(N2C(=O)CS/C2=C(\C#N)c2nc3ccccc3[nH]2)cc1	> 100 µM (inactive)	> 100 µM (inactive)	> 100 µM (inactive)	> 100 µM (inactive)	> 100 µM (inactive)	–	> 100 µM (inactive)	> 100 µM (inactive)	–
